pKi: −log10 of the molar value.
What follows are compounds tested against GST-Bc1-2 (Homo sapiens, UniProt P10415) (assay: Time Resolved-Fluorescence Resonance Energy Transfer (TR-FRET) Bcl-2 binding assay with F-Bak peptide probe). Conditions: GST-Bcl-2 1 nM, F-Bak probe 100 nM, Tb-anti-GST 1 nM; '<' = below limit of detection; read-out: TR-FRET Bcl-2 Binding Ki.
GST-Bc1-2, sequence (P10415 whole entry): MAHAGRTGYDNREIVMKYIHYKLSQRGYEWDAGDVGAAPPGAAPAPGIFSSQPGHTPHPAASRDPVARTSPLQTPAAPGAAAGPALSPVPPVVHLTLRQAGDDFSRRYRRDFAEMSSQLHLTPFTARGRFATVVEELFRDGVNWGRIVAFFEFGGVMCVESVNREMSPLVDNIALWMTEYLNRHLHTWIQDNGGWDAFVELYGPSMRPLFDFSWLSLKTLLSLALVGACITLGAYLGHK
Method: The samples are then mixed on a shaker for 1 minute and incubated for an additional 3 hours at room temperature. For each assay, the probe/antibody and protein/probe/antibody were included on each assay plate as negative and positive controls, respectively.
The samples were then mixed on a shaker for 1 minute and incubated for an additional 3 hours at room temperature. For each assay, the probe/antibody and protein/probe/antibody were included on each assay plate as negative and positive controls, respectively.
In the case of `CC1(C)CCC(CN2CCN(c3ccc(C(=O)NS(=O)(=O)c4ccc(OCC5(F)CCN(S(C)(=O)=O)CC5)c([N+](=O)[O-])c4)c(Oc4cnc5[nH]ccc5c4)c3)CC2)=C(c2ccc(Cl)cc2)C1` [Example 194, 4-(4-{[2-(4-chlorophenyl)-4,4-dimethylcyclohex-1-en-1-yl]methyl}piperazin-1-yl)-N-[(4-{[4-fluoro-1-(methylsulfonyl)piperidin-4-yl]methoxy}-3-nitrophenyl)sulfonyl]-2-(1H-pyrrolo[2,3-b]pyridin-5-yloxy)benzamide], the pKi was > 11.00.
`CC1(C)CCC(CN2CCN(c3ccc(C(=O)NS(=O)(=O)c4ccc(NC[C@H]5CCN(C6COC6)C5)c([N+](=O)[O-])c4)c(Oc4cnc5[nH]ccc5c4)c3)CC2)=C(c2ccc(Cl)cc2)C1` [Example 195, 4-(4-{[2-(4-chlorophenyl)-4,4-dimethylcyclohex-1-en-1-yl]methyl}piperazin-1-yl)-N-{[3-nitro-4-({[(3R)-1-oxetan-3-ylpyrrolidin-3-yl]methyl}amino)phenyl]sulfonyl}-2-(1H-pyrrolo[2,3-b]pyridin-5-yloxy)benzamide] was tested, and the pKi was > 11.00.
For `CN(C)CCCOc1ccc(CNc2ccc(S(=O)(=O)NC(=O)c3ccc(N4CCN(CC5=C(c6ccc(Cl)cc6)CC(C)(C)CC5)CC4)cc3Oc3cnc4[nH]ccc4c3)cc2[N+](=O)[O-])cc1` [Example 197, 4-(4-{[2-(4-chlorophenyl)-4,4-dimethylcyclohex-1-en-1-yl]methyl}piperazin-1-yl)-N-{[4-({4-[3-(dimethylamino)propoxy]benzyl}amino)-3-nitrophenyl]sulfonyl}-2-(1H-pyrrolo[2,3-b]pyridin-5-yloxy)benzamide], the pKi was > 11.00.
In the case of `CC1(C)CCC(CN2CCN(c3ccc(C(=O)NS(=O)(=O)c4ccc(NCc5ccc(OCCN6CCOCC6)cc5)c([N+](=O)[O-])c4)c(Oc4cnc5[nH]ccc5c4)c3)CC2)=C(c2ccc(Cl)cc2)C1` [Example 198, 4-(4-{[2-(4-chlorophenyl)-4,4-dimethylcyclohex-1-en-1-yl]methyl}piperazin-1-yl)-N-[(4-{[4-(2-morpholin-4-ylethoxy)benzyl]amino}-3-nitrophenyl)sulfonyl]-2-(1H-pyrrolo[2,3-b]pyridin-5-yloxy)benzamide], the pKi was > 11.00.
With `CC1(C)CCC(CN2CCN(c3ccc(C(=O)NS(=O)(=O)c4ccc(NCC56CC7CC(C5)C(O)C(C7)C6)c([N+](=O)[O-])c4)c(Oc4cnc5[nH]ccc5c4)c3)CC2)=C(c2ccc(Cl)cc2)C1` (stereo not drawn) [Example 199, 4-(4-{[2-(4-chlorophenyl)-4,4-dimethylcyclohex-1-en-1-yl]methyl}piperazin-1-yl)-N-{[4-({[(E)-4-hydroxy-1-adamantyl]methyl}amino)-3-nitrophenyl]sulfonyl}-2-(1H-pyrrolo[2,3-b]pyridin-5-yloxy)benzamide] the pKi was > 11.00.
With `CC1(C)CCC(CN2CCN(c3ccc(C(=O)NS(=O)(=O)c4ccc(NCC56CC7CC(C5)C(O)C(C7)C6)c([N+](=O)[O-])c4)c(Oc4cnc5[nH]ccc5c4)c3)CC2)=C(c2ccc(Cl)cc2)C1` (stereo not drawn) [Example 200, 4-(4-{[2-(4-chlorophenyl)-4,4-dimethylcyclohex-1-en-1-yl]methyl}piperazin-1-yl)-N-{[4-({[(Z)-4-hydroxy-1-adamantyl]methyl}amino)-3-nitrophenyl]sulfonyl}-2-(1H-pyrrolo[2,3-b]pyridin-5-yloxy)benzamide] the pKi was > 11.00.
For `CC1(C)CCC(CN2CCN(c3ccc(C(=O)NS(=O)(=O)c4ccc(OCC5C[C@H]6C=C[C@@H]5C6)c([N+](=O)[O-])c4)c(Oc4cnc5[nH]ccc5c4)c3)CC2)=C(c2ccc(Cl)cc2)C1` (stereo partly drawn) [Example 201, N-({4-[(1S,4S)-bicyclo[2.2.1]hept-5-en-2-ylmethoxy]-3-nitrophenyl}sulfonyl)-4-(4-{[2-(4-chlorophenyl)-4,4-dimethylcyclohex-1-en-1-yl]methyl}piperazin-1-yl)-2-(1H-pyrrolo[2,3-b]pyridin-5-yloxy)benzamide], the pKi was 10.85.
`CN1CC(Nc2ccc(S(=O)(=O)NC(=O)c3ccc(N4CCN(CC5=C(c6ccc(Cl)cc6)CC(C)(C)CC5)CC4)cc3Oc3cnc4[nH]ccc4c3)cc2[N+](=O)[O-])CC1=O` (stereo not drawn) [Example 202, 4-(4-{[2-(4-chlorophenyl)-4,4-dimethylcyclohex-1-en-1-yl]methyl}piperazin-1-yl)-N-({4-[(1-methyl-5-oxopyrrolidin-3-yl)amino]-3-nitrophenyl}sulfonyl)-2-(1H-pyrrolo[2,3-b]pyridin-5-yloxy)benzamide] was tested, and the pKi was > 11.00.
`CC1(C)CCC(CN2CCN(c3ccc(C(=O)NS(=O)(=O)c4ccc(OCC5CCCC(=O)C5)c([N+](=O)[O-])c4)c(Oc4cnc5[nH]ccc5c4)c3)CC2)=C(c2ccc(Cl)cc2)C1` (stereo not drawn) [Example 205, 4-(4-{[2-(4-chlorophenyl)-4,4-dimethylcyclohex-1-en-1-yl]methyl}piperazin-1-yl)-N-({3-nitro-4-[(3-oxocyclohexyl)methoxy]phenyl}sulfonyl)-2-(1H-pyrrolo[2,3-b]pyridin-5-yloxy)benzamide] was tested, and the pKi was > 11.00.
Work on `CC1(C)C=CC(c2ccc(Cl)cc2)=C(CN2CCN(c3ccc(C(=O)NS(=O)(=O)c4ccc(NCC5CCOCC5)c([N+](=O)[O-])c4)c(Oc4cnc5[nH]ccc5c4)c3)CC2)C1` [Example 206, 4-(4-{[2-(4-chlorophenyl)-5,5-dimethylcyclohexa-1,3-dien-1-yl]methyl}piperazin-1-yl)-N-({3-nitro-4-[(tetrahydro-2H-pyran-4-ylmethyl)amino]phenyl}sulfonyl)-2-(1H-pyrrolo[2,3-b]pyridin-5-yloxy)benzamide] yielded a pKi of 10.44.
In the case of `CC1(C)CCC(CN2CCN(c3ccc(C(=O)NS(=O)(=O)c4ccc(N[C@@H]5CCN(C(CF)CF)C5)c([N+](=O)[O-])c4)c(Oc4cnc5[nH]ccc5c4)c3)CC2)=C(c2ccc(Cl)cc2)C1` [Example 207, 4-(4-{[2-(4-chlorophenyl)-4,4-dimethylcyclohex-1-en-1-yl]methyl}piperazin-1-yl)-N-{[4-({(3R)-1-[2-fluoro-1-(fluoromethyl)ethyl]pyrrolidin-3-yl}amino)-3-nitrophenyl]sulfonyl}-2-(1H-pyrrolo[2,3-b]pyridin-5-yloxy)benzamide], the pKi was 10.52.
In the case of `CC1(C)CCC(CN2CCN(c3ccc(C(=O)NS(=O)(=O)c4cnc(OCC5(F)CCOCC5)c(C(F)(F)F)c4)c(Oc4cnc5[nH]ccc5c4)c3)CC2)=C(c2ccc(Cl)cc2)C1` [Example 208, 4-(4-{[2-(4-chlorophenyl)-4,4-dimethylcyclohex-1-en-1-yl]methyl}piperazin-1-yl)-N-{[6-[(4-fluorotetrahydro-2H-pyran-4-yl)methoxy]-5-(trifluoromethyl)pyridin-3-yl]sulfonyl}-2-(1H-pyrrolo[2,3-b]pyridin-5-yloxy)benzamide], the pKi was 9.98.
`CC1(C)CCC(CN2CCN(c3ccc(C(=O)NS(=O)(=O)c4ccc(NC[C@@H]5CCN(C6COC6)C5)c([N+](=O)[O-])c4)c(Oc4cnc5[nH]ccc5c4)c3)CC2)=C(c2ccc(Cl)cc2)C1` [Example 209, 4-(4-{[2-(4-chlorophenyl)-4,4-dimethylcyclohex-1-en-1-yl]methyl}piperazin-1-yl)-N-{[3-nitro-4-({[(3S)-1-oxetan-3-ylpyrrolidin-3-yl]methyl}amino)phenyl]sulfonyl}-2-(1H-pyrrolo[2,3-b]pyridin-5-yloxy)benzamide] was tested, and the pKi was > 11.00.
`CO[C@H]1CC[C@H](COc2ncc(S(=O)(=O)NC(=O)c3ccc(N4CCN(CC5=C(c6ccc(Cl)cc6)CC(C)(C)CC5)CC4)cc3Oc3cnc4[nH]ccc4c3)cc2Cl)CC1` [Example 210, Trans-N-({5-chloro-6-[(4-methoxycyclohexyl)methoxy]pyridin-3-yl}sulfonyl)-4-(4-{[2-(4-chlorophenyl)-4,4-dimethylcyclohex-1-en-1-yl]methyl}piperazin-1-yl)-2-(1H-pyrrolo[2,3-b]pyridin-5-yloxy)benzamide] gave a pKi of 10.96.
`CO[C@H]1CC[C@@H](COc2ncc(S(=O)(=O)NC(=O)c3ccc(N4CCN(CC5=C(c6ccc(Cl)cc6)CC(C)(C)CC5)CC4)cc3Oc3cnc4[nH]ccc4c3)cc2Cl)CC1` [Example 211, Cis-N-({5-chloro-6-[(4-methoxycyclohexyl)methoxy]pyridin-3-yl}sulfonyl)-4-(4-{[2-(4-chlorophenyl)-4,4-dimethylcyclohex-1-en-1-yl]methyl}piperazin-1-yl)-2-(1H-pyrrolo[2,3-b]pyridin-5-yloxy)benzamide] gave a pKi of 10.24.
`COCCOCCN1CCOC(CNc2ccc(S(=O)(=O)NC(=O)c3ccc(N4CCN(CC5=C(c6ccc(Cl)cc6)CC(C)(C)CC5)CC4)cc3Oc3cnc4[nH]ccc4c3)cc2[N+](=O)[O-])C1` (stereo not drawn) [Example 213, 4-(4-{[2-(4-chlorophenyl)-4,4-dimethylcyclohex-1-en-1-yl]methyl}piperazin-1-yl)-N-({4-[({4-[2-(2-methoxyethoxy)ethyl]morpholin-2-yl}methyl)amino]-3-nitrophenyl}sulfonyl)-2-(1H-pyrrolo[2,3-b]pyridin-5-yloxy)benzamide] was tested, and the pKi was > 11.00.
In the case of `CC1(C)CCC(CN2CCN(c3ccc(C(=O)NS(=O)(=O)c4ccc(NCC5CN(CC#N)CCO5)c([N+](=O)[O-])c4)c(Oc4cnc5[nH]ccc5c4)c3)CC2)=C(c2ccc(Cl)cc2)C1` (stereo not drawn) [Example 214, 4-(4-{[2-(4-chlorophenyl)-4,4-dimethylcyclohex-1-en-1-yl]methyl}piperazin-1-yl)-N-{[4-({[4-(cyanomethyl)morpholin-2-yl]methyl}amino)-3-nitrophenyl]sulfonyl}-2-(1H-pyrrolo[2,3-b]pyridin-5-yloxy)benzamide], the pKi was > 11.00.
With `CN(C)CC(=O)N1CCOC(CNc2ccc(S(=O)(=O)NC(=O)c3ccc(N4CCN(CC5=C(c6ccc(Cl)cc6)CC(C)(C)CC5)CC4)cc3Oc3cnc4[nH]ccc4c3)cc2[N+](=O)[O-])C1` (stereo not drawn) [Example 215, 4-(4-{[2-(4-chlorophenyl)-4,4-dimethylcyclohex-1-en-1-yl]methyl}piperazin-1-yl)-N-{[4-({[4-(N,N-dimethylglycyl)morpholin-2-yl]methyl}amino)-3-nitrophenyl]sulfonyl}-2-(1H-pyrrolo[2,3-b]pyridin-5-yloxy)benzamide] the pKi was > 11.00.

Reference: US8580794B2 (AbbVie Inc., priority 2009, dated 2013)
